Counter-ions that a name gives are not always drawn. Like-named read-outs stand apart in the source and are kept apart here.
Molecular target: T1, hNaV1.7 (Homo sapiens, UniProt Q15858)
T1 construct: expressed in transfected cells; host or cells: HEK293
Test: QPatch NaV1.7 assay (whole-cell patch clamp, QPatch16x)
Assay type: cell-based
Details: HEK293-hNaV1.7 cells
Summary of the method: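 Automated whole-cell recordings in hNaV1.7-expressing HEK293 cells, holding at either −90 mV (mostly closed channels) or the half-inactivation voltage. Compounds applied cumulatively at four concentrations for 120 s each; peak current on 20 ms depolarisation to 0 mV fitted by Hill equation to yield pIC50.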

[1] = holding voltage V1/2 SSI (half of channels inactivated), read-out: QP Nav1.7 SSI vhalf pIC50 (converted)
[2] = holding voltage −90 mV (most channels closed), read-out: QP Nav1.7 −90 mV pIC50 (converted)

T1 sequence (Q15858 whole entry): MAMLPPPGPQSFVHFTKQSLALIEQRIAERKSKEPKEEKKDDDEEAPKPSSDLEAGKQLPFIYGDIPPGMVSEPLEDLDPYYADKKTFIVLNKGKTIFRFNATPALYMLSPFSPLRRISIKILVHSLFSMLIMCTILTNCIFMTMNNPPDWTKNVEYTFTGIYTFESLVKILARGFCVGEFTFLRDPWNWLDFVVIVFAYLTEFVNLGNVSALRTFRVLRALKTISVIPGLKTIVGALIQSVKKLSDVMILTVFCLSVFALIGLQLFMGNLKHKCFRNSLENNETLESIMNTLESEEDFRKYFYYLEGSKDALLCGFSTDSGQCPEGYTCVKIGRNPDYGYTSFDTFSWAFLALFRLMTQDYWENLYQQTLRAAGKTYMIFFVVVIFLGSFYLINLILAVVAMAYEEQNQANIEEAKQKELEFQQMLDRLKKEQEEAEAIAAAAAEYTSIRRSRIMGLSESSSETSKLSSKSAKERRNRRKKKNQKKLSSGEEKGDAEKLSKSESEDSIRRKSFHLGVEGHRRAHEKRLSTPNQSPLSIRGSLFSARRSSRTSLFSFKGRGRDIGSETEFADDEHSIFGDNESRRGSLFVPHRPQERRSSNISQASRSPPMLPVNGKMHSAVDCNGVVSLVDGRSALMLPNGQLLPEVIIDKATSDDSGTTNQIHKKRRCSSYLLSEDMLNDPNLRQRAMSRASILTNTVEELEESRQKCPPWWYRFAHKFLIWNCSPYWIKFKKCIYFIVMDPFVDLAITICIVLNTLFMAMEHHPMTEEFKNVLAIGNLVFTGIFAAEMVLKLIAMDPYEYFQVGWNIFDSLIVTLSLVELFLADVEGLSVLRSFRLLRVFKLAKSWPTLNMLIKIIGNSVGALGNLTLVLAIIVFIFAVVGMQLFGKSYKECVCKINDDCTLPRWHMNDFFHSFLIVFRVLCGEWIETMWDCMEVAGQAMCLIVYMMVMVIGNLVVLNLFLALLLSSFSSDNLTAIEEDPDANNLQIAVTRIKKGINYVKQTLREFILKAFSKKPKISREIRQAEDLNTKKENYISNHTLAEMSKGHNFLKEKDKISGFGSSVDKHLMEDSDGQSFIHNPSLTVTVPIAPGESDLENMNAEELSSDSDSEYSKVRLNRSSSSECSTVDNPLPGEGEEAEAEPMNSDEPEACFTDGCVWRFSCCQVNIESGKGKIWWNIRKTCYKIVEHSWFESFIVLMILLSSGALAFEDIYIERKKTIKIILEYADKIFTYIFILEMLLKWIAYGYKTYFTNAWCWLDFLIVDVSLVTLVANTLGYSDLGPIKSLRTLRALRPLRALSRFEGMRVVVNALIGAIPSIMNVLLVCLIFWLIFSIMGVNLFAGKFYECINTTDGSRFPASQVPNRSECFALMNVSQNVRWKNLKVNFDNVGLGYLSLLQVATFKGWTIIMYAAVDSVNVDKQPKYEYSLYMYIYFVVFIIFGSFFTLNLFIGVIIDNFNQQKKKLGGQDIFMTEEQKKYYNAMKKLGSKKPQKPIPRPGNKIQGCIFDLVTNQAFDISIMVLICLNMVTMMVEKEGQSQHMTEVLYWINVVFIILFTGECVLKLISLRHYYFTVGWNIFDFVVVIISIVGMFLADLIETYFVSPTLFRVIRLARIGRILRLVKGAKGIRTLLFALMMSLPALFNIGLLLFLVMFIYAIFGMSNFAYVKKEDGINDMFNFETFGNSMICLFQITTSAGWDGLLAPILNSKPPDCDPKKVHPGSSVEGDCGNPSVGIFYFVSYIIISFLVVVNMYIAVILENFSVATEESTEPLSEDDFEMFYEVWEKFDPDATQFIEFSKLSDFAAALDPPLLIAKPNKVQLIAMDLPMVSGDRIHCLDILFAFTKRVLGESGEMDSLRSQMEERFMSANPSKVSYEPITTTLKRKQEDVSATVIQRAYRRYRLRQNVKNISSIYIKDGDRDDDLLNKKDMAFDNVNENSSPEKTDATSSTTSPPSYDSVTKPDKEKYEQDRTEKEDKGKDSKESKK

Structure (SMILES)	IC50 [1] [µM]	IC50 [2] [µM]
Cc1cc(-c2ccc(C(F)(F)F)cc2)cc([C@H]2CC[C@]3(CCN(C)C3=O)N2)n1 [Example 31, (2R,5R)-7-Methyl-2-[6-methyl-4-[4-(trifluoromethyl)phenyl]-2-pyridyl]-1,7-diazaspiro[4.4]nonan-6-one hydrochloride]	20	79.4
CCOc1ccc(F)c(-c2cc(OC)nc([C@@H]3CC[C@]4(CCN(C)C4=O)N3)c2)c1 (single isomer, unassigned) [Example 248]	5.01	31.6
Cc1cc(-c2cc(C(F)(F)F)ccc2C(N)=O)cc([C@H]2CC[C@@]3(CCN(C)C3=O)N2)n1 [Example 24, 2-[2-Methyl-6-[(2R,5S)-7-methyl-6-oxo-1,7-diazaspiro[4.4]nonan-2-yl]-4-pyridyl]-4-(trifluoromethyl)benzamide hydrochloride]	398	1000
Cc1cc(-c2ccc(C(F)(F)F)cc2)cc([C@@H]2CC[C@]3(CCN(C)C3=O)N2)n1 [Example 30, (2S,5R)-7-Methyl-2-[6-methyl-4-[4-(trifluoromethyl)phenyl]-2-pyridyl]-1,7-diazaspiro[4.4]nonan-6-one hydrochloride]	5.01	39.8
CCOc1ccc(F)c(-c2ccnc([C@@H]3CC[C@]4(CC[C@H](C)NC4=O)N3)c2)c1 [Example 244, hydrochloride]	3.16	39.8
Cc1c(-c2ccc(F)cc2)ccnc1[C@@H]1CC[C@@]2(CCN(C)C2=O)N1 [Example 20, (2S,5S)-2-[4-(4-Fluorophenyl)-3-methyl-2-pyridyl]-7-methyl-1,7-diazaspiro[4.4]nonan-6-one hydrochloride]	31.6	316
CCOCc1ccc(F)c(-c2ccnc([C@H]3CC[C@@]4(CCN(C)C4=O)N3)c2)c1 [Example 189, (2R,5S)-2-[4-[5-(Ethoxymethyl)-2-fluoro-phenyl]-2-pyridyl]-7-methyl-1,7-diazaspiro[4.4]nonan-6-one hydrochloride]	25.1	251
CN1CC[C@@]2(CC[C@H](c3cc(-c4ccc(C5(C#N)CC5)cc4)ccn3)N2)C1=O [Example 171, 1-[4-[2-[(2R,5S)-7-Methyl-6-oxo-1,7-diazaspiro[4.4]nonan-2-yl]-4-pyridyl]phenyl]cyclopropanecarbonitrile hydrochloride]	50.1	158
CCOc1cc(F)cc(-c2cc(C)nc([C@H]3CC[C@@]4(CCN(C)C4=O)N3)c2)c1 [Example 197, (2R,5S)-2-[4-(3-Ethoxy-5-fluoro-phenyl)-6-methyl-2-pyridyl]-7-methyl-1,7-diazaspiro[4.4]nonan-6-one hydrochloride]	5.01	50.1
CC1(C)C[C@@]2(CC[C@@H](c3cc(-c4ccc(C(F)(F)F)cc4)ccn3)N2)C(=O)N1 [Example 44, (2S,5S)-8,8-Dimethyl-2-[4-[4-(trifluoromethyl)phenyl]-2-pyridyl]-1,7-diazaspiro[4.4]nonan-6-one hydrochloride]	10	50.1
Cc1cc(C)c(-c2ccnc([C@H]3CC[C@@]4(CCN(C)C4=O)N3)c2)c(C)c1 [Example 2, (2R,5S)-7-Methyl-2-[4-(2,4,6-trimethylphenyl)-2-pyridyl]-1,7-diazaspiro-[4.4]nonan-6-one hydrochloride]	20	200
CCOc1cc(F)c(F)c(-c2ccnc([C@H]3CC[C@@]4(CCN(C)C4=O)N3)c2)c1 [Example 175, (2R,5S)-2-[4-(5-Ethoxy-2,3-difluoro-phenyl)-2-pyridyl]-7-methyl-1,7-diazaspiro[4.4]nonan-6-one hydrochloride]	15.8	200
O=C1NCC[C@@]12CC[C@H](c1cc(-c3ccc(C(F)(F)F)cc3)ccn1)N2 [Example 37, (2R,5S)-2-[4-[4-(Trifluoromethyl)phenyl]-2-pyridyl]-1,7-diazaspiro[4.4]nonan-6-one hydrochloride]	0.794	25.1
CCOc1ccc(F)c(-c2ccnc([C@H]3CC[C@]4(CCCNC4=O)N3)c2)c1 [Example 107, (2R,5S)-2-[4-(5-Ethoxy-2-fluoro-phenyl)-pyridin-2-yl]-1,7-diaza-spiro[4.5]decan-6-one hydrochloride]	0.2	1.58
CN1CC[C@@]2(CC[C@@H](c3cc(-c4ccc(C(F)(F)F)cc4)c(F)cn3)N2)C1=O [Example 59, (2S,5S)-2-[5-Fluoro-4-[4-(trifluoromethyl)phenyl]-2-pyridyl]-7-methyl-1,7-diazaspiro[4.4]nonan-6-one hydrochloride]	3.16	100
Cc1c(-c2ccc(C(F)(F)F)cc2)ccnc1[C@H]1CC[C@@]2(CCN(C)C2=O)N1 [Example 17, (2R,5S)-7-Methyl-2-[3-methyl-4-[4-(trifluoromethyl)phenyl]-2-pyridyl]-1,7-diazaspiro[4.4]nonan-6-one hydrochloride]	3.16	20

Structure (SMILES)	IC50 [1] [µM]	IC50 [2] [µM]
CCOc1ccc(F)c(-c2ccnc([C@@H]3CC[C@]4(CC(C)(C)NC4=O)N3)c2)c1 [Example 219, (2S,5R)-2-[4-(5-Ethoxy-2-fluoro-phenyl)-2-pyridyl]-8,8-dimethyl-1,7-diazaspiro[4.4]nonan-6-one hydrochloride]	7.94	50.1
Cc1cc(-c2cc(OC(F)(F)F)ccc2F)cc([C@H]2CC[C@@]3(CCN(C)C3=O)N2)n1 [Example 200, (2R,5S)-2-[4-[2-Fluoro-5-(trifluoromethoxy)phenyl]-6-methyl-2-pyridyl]-7-methyl-1,7-diazaspiro[4.4]nonan-6-one hydrochloride]	2	31.6
Cc1cc(-c2cc3c(cc2F)CCO3)cc([C@@H]2CC[C@]3(CCN(C)C3=O)N2)n1 [Example 208, (2S,5R)-2-[4-(5-Fluoro-2,3-dihydrobenzofuran-6-yl)-6-methyl-2-pyridyl]-7-methyl-1,7-diazaspiro[4.4]nonan-6-one hydrochloride]	100	158
O=C1NCCC[C@@]12CC[C@@H](c1cc(-c3ccc(F)cc3)ccn1)N2 [Example 110, (2S,5R)-2-[4-(4-Fluoro-phenyl)-pyridin-2-yl]-1,7-diaza-spiro[4.5]decan-6-one hydrochloride]	10	251
CCOc1cc(-c2ccnc([C@@H]3CC[C@@]4(CCN(C)C4=O)N3)c2)c(F)cc1F [Example 148, (2S,5S)-2-[4-(5-Ethoxy-2,4-difluoro-phenyl)-2-pyridyl]-7-methyl-1,7-diazaspiro[4.4]nonan-6-one hydrochloride]	31.6	398
CCOc1ccc(F)c(-c2ccnc([C@@H]3CC[C@@]4(CCN(C)C4=O)N3)c2)c1 [Example 147, (2S,5S)-2-[4-(5-Ethoxy-2-fluoro-phenyl)-2-pyridyl]-7-methyl-1,7-diazaspiro[4.4]nonan-6-one hydrochloride]	3.16	50.1
Cc1c(-c2ccc(C(F)(F)F)cc2)ccnc1[C@H]1CC[C@]2(CCN(C)C2=O)N1 [Example 14, (2R,5R)-7-Methyl-2-[3-methyl-4-[4-(trifluoromethyl)phenyl]-2-pyridyl]-1,7-diazaspiro[4.4]nonan-6-one hydrochloride]	10	63.1
O=C1NCCC[C@]12CC[C@@H](c1cc(-c3ccc(C(F)(F)F)cc3)ccn1)N2 [Example 51, (25,5S)-2-[4-(4-Trifluoromethyl-phenyl)-pyridin-2-yl]-1,7-diaza-spiro[4.5]decan-6-one hydrochloride]	5.01	25.1
CN1CC[C@]2(CC[C@@H](c3cc(-c4ccccc4F)ccn3)N2)C1=O [Example 34, (2S,5R)-2-[4-(2-Fluoro-phenyl)-pyridin-2-yl]-7-methyl-1,7-diaza-spiro[4.4]nonan-6-one hydrochloride]	158	251
CC(C)CCn1cc(-c2ccnc([C@H]3CC[C@@]4(CCN(C)C4=O)N3)c2)cn1 [Example 170, (2R,5S)-2-[4-(1-Isopentylpyrazol-4-yl)-2-pyridyl]-7-methyl-1,7-diazaspiro[4.4]nonan-6-one hydrochloride]	25.1	398
CCOc1ccc(F)c(-c2cc(C)nc([C@H]3CC[C@@]4(CCN(C)C4=O)N3)c2)c1 [Example 93, (2R,5S)-2-[4-(5-Ethoxy-2-fluoro-phenyl)-6-methyl-pyridin-2-yl]-7-methyl-1,7-diaza-spiro[4.4]nonan-6-one hydrochloride]	3.98	39.8
CCOc1ccc(F)c(-c2cc([C@@H]3CC[C@]4(CCN(C)C4=O)N3)ncc2C)c1 [Example 139, (2S,5R)-2-[4-(5-Ethoxy-2-fluoro-phenyl)-5-methyl-2-pyridyl]-7-methyl-1,7-diazaspiro[4.4]nonan-6-one hydrochloride]	39.8	251
O=C1NCC[C@]12CC[C@@H](c1cc(-c3cccc(OC(F)(F)F)c3)ccn1)N2 [Example 116, (2S,5R)-2-[4-[3-(Trifluoromethoxy)phenyl]-2-pyridyl]-1,7-diazaspiro[4.4]nonan-6-one hydrochloride]	10	79.4
CCOc1ccc(F)c(-c2cc(C)nc([C@@H]3CC[C@@]4(CCNC4=O)N3)c2)c1 [Example 105, (2S,5S)-2-[4-(5-Ethoxy-2-fluoro-phenyl)-6-methyl-2-pyridyl]-1,7-diazaspiro[4.4]nonan-6-one hydrochloride]	2	25.1
CCOc1ccc(F)c(-c2cc([C@@H]3CC[C@@]4(CCN(C)C4=O)N3)ncc2C)c1 [Example 138, (2S,5S)-2-[4-(5-Ethoxy-2-fluoro-phenyl)-5-methyl-2-pyridyl]-7-methyl-1,7-diazaspiro[4.4]nonan-6-one hydrochloride]	25.1	200
